Test results reported in ChEMBL document CHEMBL5252541, “Repurposing antipsychotic drugs into antifungal agents: Synergistic combinations of azoles and bromperidol derivatives in the treatment of various fungal infections” (Eur J Med Chem, 2017).
≈ marks a conversion by molar mass, not a printed value.

Tests used:
[1] = test system: Candida albicans; assay: Synergistic antifungal activity against Candida albicans ATCC 64124 assessed as fluconazole MIC measured after 48 hrs by checkboard based microplate reader analysis; assay type: functional
[2] = test system: Candida albicans; assay: Synergistic antifungal activity against Candida albicans ATCC 10231 assessed as fluconazole MIC measured after 48 hrs by checkboard based microplate reader analysis; assay type: functional
[3] = test system: Candida albicans; assay: Antifungal activity against Candida albicans ATCC 64124 measured after 48 hrs by broth microdilution analysis; assay type: functional
[4] = test system: Candida albicans; assay: Antifungal activity against Candida albicans ATCC 10231 measured after 48 hrs by broth microdilution analysis; assay type: functional
[5] = test system: Candida albicans; assay: Synergistic antifungal activity against Candida albicans ATCC 64124 assessed as itraconazole MIC measured after 48 hrs by checkboard based microplate reader analysis; assay type: functional
[6] = test system: Candida albicans; assay: Synergistic antifungal activity against Candida albicans ATCC 10231 assessed as itraconazole MIC measured after 48 hrs by checkboard based microplate reader analysis; assay type: functional
[7] = test system: Candida albicans; assay: Synergistic antifungal activity against Candida albicans ATCC 10231 assessed as compound MIC measured after 48 hrs in presence of fluconazole by checkboard based microplate reader analysis; assay type: functional
[8] = test system: Candida albicans; assay: Synergistic antifungal activity against Candida albicans ATCC 64124 assessed as compound MIC measured after 48 hrs in presence of posaconazole by checkboard based microplate reader analysis; assay type: functional
[9] = test system: Candida albicans; assay: Synergistic antifungal activity against Candida albicans ATCC 10231 assessed as compound MIC measured after 48 hrs in presence of posaconazole by checkboard based microplate reader analysis; assay type: functional
[10] = test system: Candida albicans; assay: Synergistic antifungal activity against Candida albicans ATCC 64124 assessed as compound MIC measured after 48 hrs in presence of ketoconazole by checkboard based microplate reader analysis; assay type: functional
[11] = test system: Candida albicans; assay: Synergistic antifungal activity against Candida albicans ATCC 10231 assessed as compound MIC measured after 48 hrs in presence of ketoconazole by checkboard based microplate reader analysis; assay type: functional
[12] = test system: Candida albicans; assay: Synergistic antifungal activity against Candida albicans ATCC 64124 assessed as compound MIC measured after 48 hrs in presence of itraconazole by checkboard based microplate reader analysis; assay type: functional
[13] = test system: Candida albicans; assay: Synergistic antifungal activity against Candida albicans ATCC 10231 assessed as compound MIC measured after 48 hrs in presence of itraconazole by checkboard based microplate reader analysis; assay type: functional
[14] = test system: Candida albicans; assay: Synergistic antifungal activity against Candida albicans ATCC 64124 assessed as compound MIC measured after 48 hrs in presence of fluconazole by checkboard based microplate reader analysis; assay type: functional
[15] = test system: Candida albicans; assay: Antifungal activity against Candida albicans ATCC MYA-1237 measured after 48 hrs by broth microdilution analysis; assay type: functional
[16] = test system: Nakaseomyces glabratus; assay: Antifungal activity against Candida glabrata ATCC 2001 measured after 48 hrs by broth microdilution analysis; assay type: functional
[17] = test system: Candida albicans; assay: Synergistic antifungal activity against Candida albicans ATCC 10231 assessed as compound MIC measured after 48 hrs in presence of voriconazole by checkboard based microplate reader analysis; assay type: functional
[18] = test system: Candida albicans; assay: Synergistic antifungal activity against Candida albicans ATCC 64124 assessed as compound MIC measured after 48 hrs in presence of voriconazole by checkboard based microplate reader analysis; assay type: functional
[19] = test system: Candida albicans; assay: Additive antifungal activity against Candida albicans ATCC 10231 assessed as fractional inhibitory concentration index measured for 72 hrs in presence of fluconazole; assay type: functional
[20] = test system: Candida albicans; assay: Additive antifungal activity against Candida albicans ATCC 64124 assessed as fractional inhibitory concentration index measured for 72 hrs in presence of fluconazole; assay type: functional
[21] = test system: Candida albicans; assay: Additive antifungal activity against Candida albicans ATCC 10231 assessed as fractional inhibitory concentration index measured for 72 hrs in presence of itraconazole; assay type: functional
[22] = test system: Candida albicans; assay: Additive antifungal activity against Candida albicans ATCC 64124 assessed as fractional inhibitory concentration index measured for 72 hrs in presence of itraconazole; assay type: functional
[23] = test system: Candida albicans; assay: Partial synergistic antifungal activity against Candida albicans ATCC 64124 assessed as fractional inhibitory concentration index measured for 72 hrs in presence of voriconazole; assay type: functional
[24] = test system: Candida albicans; assay: Partial synergistic antifungal activity against Candida albicans ATCC 10231 assessed as fractional inhibitory concentration index measured for 72 hrs in presence of ketoconazole; assay type: functional
[25] = test system: Candida albicans; assay: Partial synergistic antifungal activity against Candida albicans ATCC 64124 assessed as fractional inhibitory concentration index measured for 72 hrs in presence of ketoconazole; assay type: functional
[26] = test system: Candida albicans; assay: Antifungal activity against Candida albicans ATCC MYA-1003 measured after 48 hrs by broth microdilution analysis; assay type: functional
[27] = test system: Candida albicans; assay: Antifungal activity against Candida albicans ATCC MYA-2310 measured after 48 hrs by broth microdilution analysis; assay type: functional
[28] = test system: Candida albicans; assay: Antifungal activity against Candida albicans ATCC MYA-2876 measured after 48 hrs by broth microdilution analysis; assay type: functional
[29] = test system: Candida albicans; assay: Antifungal activity against Candida albicans ATCC 90819 measured after 48 hrs by broth microdilution analysis; assay type: functional
[30] = test system: Aspergillus terreus; assay: Antifungal activity against Aspergillus terreus ATCC MYA-3633 measured after 48 hrs by broth microdilution analysis; assay type: functional
[31] = test system: Candida albicans; assay: Additive antifungal activity against Candida albicans ATCC MYA-1237 assessed as fractional inhibitory concentration index measured for 72 hrs in presence of posaconazole; assay type: functional
[32] = test system: Candida albicans; assay: Additive antifungal activity against Candida albicans ATCC MYA-1237 assessed as fractional inhibitory concentration index measured for 72 hrs in presence of voriconazole; assay type: functional
[33] = test system: Candida albicans; assay: Additive antifungal activity against Candida albicans ATCC MYA-2310 assessed as fractional inhibitory concentration index measured for 72 hrs in presence of posaconazole; assay type: functional
[34] = test system: Candida albicans; assay: Additive antifungal activity against Candida albicans ATCC MYA-2310 assessed as fractional inhibitory concentration index measured for 72 hrs in presence of voriconazole; assay type: functional
[35] = test system: Candida albicans; assay: Additive antifungal activity against Candida albicans ATCC MYA-2876 assessed as fractional inhibitory concentration index measured for 72 hrs in presence of posaconazole; assay type: functional
[36] = test system: Candida albicans; assay: Additive antifungal activity against Candida albicans ATCC MYA-2876 assessed as fractional inhibitory concentration index measured for 72 hrs in presence of voriconazole; assay type: functional
[37] = test system: Candida albicans; assay: Additive antifungal activity against Candida albicans ATCC 90819 assessed as fractional inhibitory concentration index measured for 72 hrs in presence of posaconazole; assay type: functional
[38] = test system: Candida albicans; assay: Additive antifungal activity against Candida albicans ATCC 90819 assessed as fractional inhibitory concentration index measured for 72 hrs in presence of voriconazole; assay type: functional
[39] = test system: Nakaseomyces glabratus; assay: Additive antifungal activity against Candida glabrata ATCC 2001 assessed as fractional inhibitory concentration index measured for 72 hrs in presence of posaconazole; assay type: functional
[40] = test system: Nakaseomyces glabratus; assay: Additive antifungal activity against Candida glabrata ATCC 2001 assessed as fractional inhibitory concentration index measured for 72 hrs in presence of voriconazole; assay type: functional
[41] = test system: Aspergillus terreus; assay: Additive antifungal activity against Aspergillus terreus ATCC MYA-3633 assessed as fractional inhibitory concentration index measured for 72 hrs in presence of voriconazole; assay type: functional
[42] = test system: Nakaseomyces glabratus; assay: Synergistic antifungal activity against Candida glabrata ATCC 2001 assessed as fractional inhibitory concentration index measured for 72 hrs in presence of posaconazole; assay type: functional
[43] = test system: Candida albicans; assay: Additive antifungal activity against Candida albicans MYA-1003 assessed as fractional inhibitory concentration index measured for 72 hrs in presence of voriconazole

**Q.** Which MIC [1] does the source give for `OC(Cn1cncn1)(Cn1cncn1)c1ccc(F)cc1F` [FLUCONAZOLE] here?
**A.** > 32 mg/L

**Q.** And the MIC [2]?
**A.** > 32 mg/L

**Q.** What about the MIC [3] of the same compound?
**A.** > 32 mg/L

**Q.** What about the MIC [4] of the same compound?
**A.** > 32 mg/L

**Q.** `CCC(C)n1ncn(-c2ccc(N3CCN(c4ccc(OCC5COC(Cn6cncn6)(c6ccc(Cl)cc6Cl)O5)cc4)CC3)cc2)c1=O` (stereo not drawn) [ITRACONAZOLE] was tested. Which MIC [3] did it give?
**A.** > 32 mg/L

**Q.** What about the MIC [4] of the same compound?
**A.** 1 mg/L (≈ 1.42 µM)

**Q.** And the MIC [5]?
**A.** > 32 mg/L

**Q.** What about the MIC [6] of the same compound?
**A.** 0.25 mg/L

**Q.** What does the source list for `O=C(CCCN1CCC(O)(c2ccc(Br)cc2)CC1)c1ccc(Br)cc1`?
**A.** MIC [2]: > 32 mg/L; MIC [3]: > 64 mg/L; MIC [4]: > 64 mg/L; MIC [7]: > 64 mg/L; MIC [8]: 16 mg/L; MIC [9]: 32 mg/L; MIC [10]: 1 mg/L; MIC [11]: 1 mg/L; MIC [12]: > 64 mg/L; MIC [13]: 64 mg/L; MIC [14]: > 64 mg/L; MIC [15]: > 64 mg/L; MIC [16]: > 64 mg/L; MIC [17]: 32 mg/L; MIC [18]: 32 mg/L; fractional inhibitory concentration index (FICI) [19]: 2; fractional inhibitory concentration index (FICI) [20]: 2; fractional inhibitory concentration index (FICI) [21]: 1.5; fractional inhibitory concentration index (FICI) [22]: 2; fractional inhibitory concentration index (FICI) [23]: 0.63; fractional inhibitory concentration index (FICI) [24]: 0.52; fractional inhibitory concentration index (FICI) [25]: 0.52; MIC [26]: > 64 mg/L; MIC [27]: > 64 mg/L; MIC [28]: > 64 mg/L; MIC [29]: > 64 mg/L; MIC [30]: > 64 mg/L; fractional inhibitory concentration index (FICI) [31]: 2; fractional inhibitory concentration index (FICI) [32]: 2; fractional inhibitory concentration index (FICI) [33]: 2; fractional inhibitory concentration index (FICI) [34]: 2; fractional inhibitory concentration index (FICI) [35]: 2; fractional inhibitory concentration index (FICI) [36]: 2; fractional inhibitory concentration index (FICI) [37]: 2; fractional inhibitory concentration index (FICI) [38]: 2; fractional inhibitory concentration index (FICI) [39]: 0.38; fractional inhibitory concentration index (FICI) [40]: 2; fractional inhibitory concentration index (FICI) [41]: 2; fractional inhibitory concentration index (FICI) [42]: 0.38; fractional inhibitory concentration index (FICI) [43]: 2
